In US20050222205A1, “Treatment of pain with ifendropil” (priority 2002, published 2005):
Entries after “also recorded” stand apart in the source; their conditions may differ.

What was measured:
[1] = tested on: alpha-1 adrenergic receptor; details: cited from earlier work
acute and chronic pain = details: in vivo; cited from earlier work
[2] = tested on: thermal stimulation of the lesioned paw; test: effect of agents on thermal stimulation of the lesioned paw; type: in vivo
[3] = target: NR2B-containing NMDA receptors (Homo sapiens, UniProt Q05586+Q13224); details: voltage-independent and non-competitive manner; cited from earlier work
neuropathic pain = test: model of neuropathic pain (Bennett model); type: in vivo
Source text: Evidence of the incorrect conclusion reached by Chenard et al., 1991, supra, is provided by experiments conducted in a Bennett model (Bennett et al, 1988, Pain 33(1):87-107). The results are shown in the accompanying drawing.

alpha1-adrenoceptor = test: hypotension liability (alpha1-adrenoceptor antagonism)

Sequence of NR2B-containing NMDA receptors (Q13224 27-1484, other chains not shown): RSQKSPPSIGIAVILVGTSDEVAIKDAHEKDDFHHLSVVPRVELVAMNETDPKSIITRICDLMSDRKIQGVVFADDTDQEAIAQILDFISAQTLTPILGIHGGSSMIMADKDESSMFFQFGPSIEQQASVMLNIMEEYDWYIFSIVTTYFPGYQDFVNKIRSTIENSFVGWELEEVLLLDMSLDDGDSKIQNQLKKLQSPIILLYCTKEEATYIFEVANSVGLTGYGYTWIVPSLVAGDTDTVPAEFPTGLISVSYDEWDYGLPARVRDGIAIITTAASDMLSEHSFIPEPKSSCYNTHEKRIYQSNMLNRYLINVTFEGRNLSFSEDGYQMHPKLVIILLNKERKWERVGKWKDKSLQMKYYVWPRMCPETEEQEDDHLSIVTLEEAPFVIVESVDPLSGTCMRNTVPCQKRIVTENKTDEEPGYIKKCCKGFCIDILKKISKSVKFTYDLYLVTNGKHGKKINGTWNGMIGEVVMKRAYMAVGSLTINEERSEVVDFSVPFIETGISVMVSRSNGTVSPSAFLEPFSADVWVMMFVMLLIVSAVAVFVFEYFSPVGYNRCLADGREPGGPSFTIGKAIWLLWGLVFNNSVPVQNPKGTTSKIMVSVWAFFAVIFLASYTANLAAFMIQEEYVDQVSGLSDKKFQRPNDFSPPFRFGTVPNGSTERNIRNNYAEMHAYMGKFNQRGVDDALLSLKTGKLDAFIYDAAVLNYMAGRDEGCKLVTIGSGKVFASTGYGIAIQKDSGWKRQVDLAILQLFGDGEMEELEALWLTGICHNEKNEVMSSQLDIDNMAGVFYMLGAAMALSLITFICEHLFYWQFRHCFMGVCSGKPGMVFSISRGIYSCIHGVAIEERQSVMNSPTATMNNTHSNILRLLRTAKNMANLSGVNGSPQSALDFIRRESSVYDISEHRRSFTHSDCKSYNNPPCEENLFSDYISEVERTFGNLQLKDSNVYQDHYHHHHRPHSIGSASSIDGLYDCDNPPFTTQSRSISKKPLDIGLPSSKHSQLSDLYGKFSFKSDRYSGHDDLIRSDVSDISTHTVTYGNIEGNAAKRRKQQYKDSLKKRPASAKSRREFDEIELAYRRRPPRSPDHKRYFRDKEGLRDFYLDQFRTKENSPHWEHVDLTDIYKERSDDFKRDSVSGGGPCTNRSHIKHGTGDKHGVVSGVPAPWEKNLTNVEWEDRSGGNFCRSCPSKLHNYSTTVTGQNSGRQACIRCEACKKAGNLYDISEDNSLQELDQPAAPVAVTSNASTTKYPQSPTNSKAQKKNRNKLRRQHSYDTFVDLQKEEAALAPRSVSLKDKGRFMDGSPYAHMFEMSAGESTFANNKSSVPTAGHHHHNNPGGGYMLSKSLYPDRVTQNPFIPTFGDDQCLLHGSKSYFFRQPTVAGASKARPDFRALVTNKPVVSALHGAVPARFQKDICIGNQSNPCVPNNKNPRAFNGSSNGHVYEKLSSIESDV

hypotension liability (alpha1-adrenoceptor antagonism) versus the other enantiomers (alpha1-adrenoceptor) | Compound | alpha-1 adrenergic receptor binding [1] | anti-nociceptive activity in animal models of acute and chronic pain (acute and chronic pain) | effectiveness on thermal stimulation of the lesioned paw relative to comparators ([2]; ifenprodil 3, 10 and 30 mg/kg ip, gabapentin 30 mg/kg ip, morphine 8 mg/kg ip) | block of NR2B-containing NMDA receptors [3] | efficacy versus the other enantiomers in a model of neuropathic pain (neuropathic pain) | effectiveness on thermal stimulation of the lesioned paw, comparison of enantiomers ([2]; 3 mg/kg ip)
 | CC(C(O)c1ccc(O)cc1)N1CCC(Cc2ccccc2)CC1 (stereo not shown) [Ifenprodil, 2-(4-benzylpiperidino)-1-(4-hydroxyphenyl)-1-propanol] | potent alpha-1 adrenergic receptor binding properties | exhibits anti-nociceptive activity | more effective than gabapentin; also recorded: almost as effective as morphine | selectively blocks NR2B-containing NMDA receptors |  | 
lower hypotension liability | CC(C(O)c1ccc(O)cc1)N1CCC(Cc2ccccc2)CC1 (single isomer, unassigned; (-)) [(−)-threo-ifenprodil] |  |  |  |  | does not produce a significant increase in efficacy over the other enantiomers | the most effective enantiomer
